Data: publication PMC11574045, “A cofactor-induced repressive type of transcription factor condensation can be induced by synthetic peptides to suppress tumorigenesis” (The EMBO Journal, 2024)
Several values for one entry are separate records, joined by “and”; a condition that tells them apart may be missing. Identical values can stand only once. Ends that are not written are not given here.

Tests used:
[1] = tested on: WT or TEAD4KO HGC-27 cells; assay: Cut&Tag; assay type: cell-based, human; conditions: GLUP 10 μg/ml (5 μM)
TEAD4 [2] = target: T1, TEAD4 (Homo sapiens, UniProt Q15561); assay: Dynamic light scattering (DLS) of TEAD4 oligomerization; assay type: biochemical; conditions: after 10–20 min incubation with glup (10 μg/ml); TEAD4:glup molar ratio 10:1, 4 °C; DLS at 25 °C
T1 construct: His; made in house; host or cells: Escherichia coli BL21(DE3)
Method: In the case of glup, the mixtures were incubated at 4 °C for various periods of time as indicated in related figures. And then the mixtures were subjected to dynamic light scattering analysis at 25 °C. Scattered light was measured at a 90° angle at a wavelength of 658 nm.

HGC-27 cells [3] = assay: Live-cell imaging of FAM-GLUP cellular entry; assay type: cell-based, human; conditions: FAM-GLUP 10 μg/ml (5 μM), HGC-27 live cells
Method: (§1) To confirm cellular entry of GLUP, we performed immunostaining of live cells treated with a fluorescein-labeled version of the peptide (FAM-GLUP). […] We then examined the potential effect of GLUP on TEAD4-mediated perturbation of DNA conformation.
(A) Representative live-cell images of HGC-27 cells treated with FAM (a fluorescent moiety)-labeled GLUP for indicated periods of time. FAM-GLUP: 10 μg/ml (5 μM). Scale bar, 10 μm. (B) Representative DAPI staining images of DNA showing its organization and appearance in the presence or absence of TEAD4 and GLUP as indicated. GLUP: 1 μg/ml (0.5 μM). Scale bar, 100 nm. (C) Representative N-SIM images of chromatin in GLUP-treated cells stained with DAPI. GLUP, 1 μg/ml (0.5 μM). Scale bar, 100 nm. (D) Representative images showing co-localization of GFP-TEAD4 with H3K27me3 in HEK293FT cells treated with GLUP together with 1,6-Hex. Scale bar, 1 μm. (E) Average enrichment profiles of H3K27me3 in GLUP-treated WT or TEAD4KO HGC-27 cells, stratified by gene length (three biological replicates, n = 3). Normalization of coverage using RPKM was performed over the genes and flanking region 1 kb in length. GLUP: 10 μg/ml (5 μM). […] The interval scale was 10 in both cases. See also Appendix Fig. S6. Source data are available online for this figure.

TEAD4 [4] = target: T1, TEAD4; assay: In vitro LLPS (droplet formation) assay; assay type: biochemical
Method: LLPS was induced at room temperature by diluting proteins and NaCl to specified concentrations (20, 150, 500 mM). After subsequent mixing, 10 μl of the reaction solution were gently transferred onto a 20 mm glass-bottomed dish (NEST, 801001) for differential interference contrast (DIC) imaging performed using a Zeiss LSM 880 confocal microscope equipped with a 20× water immersion objective lens. Unless otherwise indicated (e.g., in the figure legend), the final concentration of purified protein used for in vitro LLPS assays was 40 μM.

HGC-27 cells [5] = assay: RNA sequencing; assay type: cell-based, human; conditions: GLUP-treated HGC-27 cells
Method: For RNA sequencing, HGC-27 cells in 6-well plates were treated with GLUP peptide at 10 μg/ml for 48 h. The stocking buffer (20 mM HEPES pH 7.5, and 100 mM NaCl) was used as a negative control. Total RNA was extracted from at least two biological replicates. Extracted RNA was monitored for its quality using a 2100 Expert Bioanalyzer (Agilent) before being sent for library preparation and RNA sequencing (Majorbio). The RNA sequencing data were analyzed on a free online Majorbio I-Sanger Cloud Platform (www.majorbio.com).

[6] = tested on: GFP-TEAD4 condensates in HEK293FT cells; assay: FRAP of TEAD4 condensates in live cells; assay type: cell-based; conditions: GLUP-treated HEK293FT cells
Method: For FRAP analysis, cells were seeded at a confluency of ~30% on a 35-mm glass-bottomed dish (Cellvis D35C4-20-1-N). Live cell imaging was carried out using a Leica SP8 confocal microscope (Leica, Germany) with a 63× oil immersion objective lens. A defined region with a diameter of ~1 μm was photobleached by the equipped laser at ~90% power intensity. Fluorescence intensities of the region were recorded by carrying out time-lapse live imaging with a 1.29 s interval and further quantified using Fiji ImageJ software.

MNU-induced GC tumors = assay: MNU-induced gastric cancer mouse model; assay type: in vivo; design: Tumor area, GLUP+ / Tumor area, GLUP++: unit not given here
Method: For the model involving N-nitroso-N-methylurea (MNU)-induced GC, 8-week-old C57BL/6 mice received 3 cycles of MNU (TRC, Toronto, Canada) in drinking water. For each cycle, drinking water containing 240 μg/ml MNU was served to the mice for 1 week, and then normal drinking water the next week. After 19 weeks of MNU administration, mice were randomized to receive GLUP via intraperitoneal injection (i.p.) biweekly for the following 5 weeks (n = 8/group). After 24 weeks, mice were sacrificed for subsequent analysis. The tumor volume per stomach was measured.

[7] = tested on: TEAD4^high or TEAD4^low GC patient-derived xenografts; assay: Patient-derived xenograft (PDX) model; assay type: in vivo, mouse; design: Tumor area, TEAD4High PDX / Tumor area, TEAD4Low PDX: unit not given beside the values
Method: To establish PDX models, cell suspensions from GC patients were prepared as they were for PDOs. Subcutaneous implantation was performed on one flank of 5-week-old SCID mice weighing from 16 to 18 g and that were anesthetized using a isoflurane/oxygen mixture. Tumor growth was monitored by taking biweekly measurements of the implantation sites. Serial engraftments of each tumor were performed when the tumor reached a volume of ~500 mm^3. Subsequently, PDX tumors were enzymatically disassociated to form a single-cell suspension. To reduce murine cell populations, the cell suspension was then subjected to magnetic mouse cell depletion using a MACS mouse cell depletion kit (Miltenyi Biotech, Bergisch Gladbach, Germany). Following the cell depletion, all established PDX cell lines were maintained at steady rates of proliferation in RPMI 1640 medium. Additionally, a small piece of tumor tissue was obtained using a scalpel and fixed in 10% formalin-buffered saline for histological analysis.

chromatin = assay: N-SIM imaging of DAPI-labeled chromatin in cells; assay type: cell-based; conditions: GLUP 1 μg/ml (0.5 μM)
Source text: Next, we used structure illumination microscopy (N-SIM) to examine deformation of DAPI-labeled chromatin in cells overexpressing VGLL4. […] To further address this issue, we performed colloidal gold staining using TEAD4 antibody to observe the status of chromatin around TEAD4.
as §1

[8] = 5 mg/kg GLUP daily for 15 d, individual mice, n = 8 (source data Fig 8I)

T1 sequence (Q15561 whole entry): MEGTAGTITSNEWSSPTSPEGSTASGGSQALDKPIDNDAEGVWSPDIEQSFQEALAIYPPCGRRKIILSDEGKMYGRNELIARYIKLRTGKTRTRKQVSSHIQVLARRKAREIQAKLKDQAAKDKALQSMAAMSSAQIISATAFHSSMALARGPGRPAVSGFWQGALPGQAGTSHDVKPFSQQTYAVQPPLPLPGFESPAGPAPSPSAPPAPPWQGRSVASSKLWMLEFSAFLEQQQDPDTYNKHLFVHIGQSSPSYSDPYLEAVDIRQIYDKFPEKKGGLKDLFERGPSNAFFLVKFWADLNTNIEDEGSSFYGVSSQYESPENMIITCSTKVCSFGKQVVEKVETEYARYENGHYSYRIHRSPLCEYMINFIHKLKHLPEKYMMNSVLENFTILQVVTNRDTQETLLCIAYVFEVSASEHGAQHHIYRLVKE

In the case of “RRVCVHFHFSLSLR-NH2 (C-terminus assumed) [glup]”, the “H3K27me3 signals at 3 kb regions flanking TSS” value ([1]; TEAD4-depleted HGC-27 cells) is reported as “no such effect was detected”, the “H3K27me3 signals at 3 kb regions flanking TSS” value ([1]; WT HGC-27 cells) is reported as “dramatically strengthened the signals of H3K27me3” and the “TEAD4 oligomerization by DLS” value (TEAD4 [2]) is reported as “formed dimers or oligomers of high molecular weight”. For the same substance, the Cellular localisation (HGC-27 cells [3]; 30 min) was “in the cytoplasm but outside of the nucleus”, the Cellular localisation (HGC-27 cells [3]; 80 min) was “throughout in the cell including the nucleus” and the “Turbidity of TEAD4 solution after GLUP” value (TEAD4 [4]; PEG solution, vials before and after GLUP) was “high turbidity in a PEG solution”. For the same substance, the TEAD4 droplet formation (TEAD4 [4]; mCherry-TEAD4 with FAM-GLUP 20, 40, 80 µM) was “strongly promoted TEAD4 droplet formation”, the “GSEA of TEAD signature genes” value (HGC-27 cells [5]) was “negative enrichment of TEAD signature genes” and the “mobile fraction (FRAP)” value [6] was “about 62%”. The “Average tumor area vs control” value (MNU-induced GC tumors; MNU-induced GC mice, 5-week GLUP treatment) was “much smaller than that in control mice”, the Gastric mucosa histology (MNU-induced GC tumors; MNU-induced GC mice, high dose GLUP 5 mg/kg) was “almost normal gastric mucosa” and the “Tumor area, GLUP+” value (MNU-induced GC tumors; MNU-induced GC, C57BL/6 mice, 1 mg/kg GLUP biweekly for 5 weeks, individual mice (source data Fig 7B), 1 mg/kg) was 28.125 and 40.5 and 20.5 and 4.5 and 6.5 and 16.2. For the same substance, the “Tumor area, GLUP++” value (MNU-induced GC tumors; MNU-induced GC, C57BL/6 mice, 5 mg/kg GLUP biweekly for 5 weeks, individual mice (source data Fig 7B), 5 mg/kg) was 4.5 and 2.5315 and 0.5 and 0, the “Tumor area, TEAD4High PDX” value [7, 8] was 0 and 0.0472 and 0.0501 and 0.0406 and 0.03159 and 0.05051 and the “Tumor area, TEAD4Low PDX” value [7, 8] was 0.09232 and 0.08466 and 0.08264 and 0.05322 and 0.1278 and 0.08635 and 0.1028 (2×). The “Tumor response, TEAD4^high PDX” value ([7]; GLUP (i.v.) for 2 weeks) was “significantly regressed”, the “Tumor response, TEAD4^low PDX” value ([7]; GLUP (i.v.) for 2 weeks) was “did not respond to the GLUP treatment” and the “Effect on chromatin distribution” value (chromatin) was “substantially disturbed chromatin distribution and organization”.
